Measurements reported in publication PMC11879040, “Advancing systemic toxicity risk assessment: Evaluation of a NAM-based toolbox approach” (Toxicological Sciences, 2024).
pIC50: −log10 of the molar value. Like-named read-outs stand apart in the source and are kept apart here.

Columns and labels:
[1] = test system: Thyroid hormone receptor alpha, THRA (h); assay: IPP THRA coactivator recruitment (agonist); format: biochemical, human; details: 100 uM; agonist; T3; * denotes assay interference (2-Amino-6-chloro-4-nitrophenol, HC Red 3)
[2] = human
[3] = test system: Sodium channel protein type 5 subunit alpha (site 2), SCN5A (r); format: binding, rat; details: IPP screening at 100 uM; control veratridine
[4] = target: T1, Pregnane X receptor PXR, NR1I2 (h) (Homo sapiens, UniProt O75469)
T1 sequence (O75469 1-434): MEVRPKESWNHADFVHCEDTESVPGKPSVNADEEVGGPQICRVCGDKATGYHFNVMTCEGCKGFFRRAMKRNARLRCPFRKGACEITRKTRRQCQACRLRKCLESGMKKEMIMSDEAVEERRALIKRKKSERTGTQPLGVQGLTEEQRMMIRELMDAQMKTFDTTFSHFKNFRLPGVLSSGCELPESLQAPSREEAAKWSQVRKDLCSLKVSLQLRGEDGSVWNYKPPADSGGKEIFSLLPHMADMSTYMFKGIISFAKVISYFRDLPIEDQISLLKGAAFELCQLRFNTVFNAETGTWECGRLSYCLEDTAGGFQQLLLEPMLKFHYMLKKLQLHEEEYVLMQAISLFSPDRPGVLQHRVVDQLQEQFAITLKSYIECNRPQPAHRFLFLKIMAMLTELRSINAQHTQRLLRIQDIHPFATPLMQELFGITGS

[5] = target: T2, Constitutive androstane receptor CAR, NR1I3 (h) (Homo sapiens, UniProt Q14994); format: biochemical
T2 sequence (Q14994 1-352): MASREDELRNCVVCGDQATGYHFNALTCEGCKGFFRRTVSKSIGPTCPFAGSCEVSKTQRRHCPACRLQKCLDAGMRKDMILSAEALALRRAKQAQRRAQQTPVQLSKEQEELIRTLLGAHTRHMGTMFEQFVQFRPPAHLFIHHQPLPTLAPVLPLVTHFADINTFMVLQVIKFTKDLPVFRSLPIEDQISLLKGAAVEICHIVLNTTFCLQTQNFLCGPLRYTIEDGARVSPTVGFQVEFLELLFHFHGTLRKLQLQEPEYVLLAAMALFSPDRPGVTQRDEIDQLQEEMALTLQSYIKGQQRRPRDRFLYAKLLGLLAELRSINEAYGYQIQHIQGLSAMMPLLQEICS

[6] = test system: HepG2 cells; assay: Cell stress panel (CSP), 24 h, 8 concentrations, BIFROST global PoD; format: cell-based; details: HepG2; cell stress panel PoD
Experimental: Compounds were tested using the previously developed cell stress panel ([Hatherell et al. 2020]) and the expanded biomarker panel outlined in Middleton et al. HepG2 cells were treated with all compounds for 24 h across 8 concentrations prior to biomarker analysis. The same plate layout and number of replicates (3 biological and 2 technical) were used as previously for each assay within the panel.

[7] = target: T3, Adenosine receptor A2a, ADORA2A (h) (Homo sapiens, UniProt P29274); assay: IPP ADORA2A binding (agonist radioligand); details: IPP screening at 100 uM; control NECA
T3 construct: purchased Eurofins Cerep (SafetyScreen44-based IPP panel)

[8] = test system: Glutamate receptor ionotropic NMDA 1 non-selective, GRIN1 (r); details: IPP screening at 100 uM; control CGS 19755
[9] = test system: Gamma-aminobutyric acid receptor subunit alpha-1 BZD site, GABRA1A (r); format: binding, rat; details: IPP screening at 100 uM; control diazepam
[10] = target: Potassium voltage-gated channel subfamily H member 2 hERG, KCNH2 (h) (Homo sapiens, UniProt Q12809)
[11] = test system: Potassium Voltage-Gated Channel Kv non-selective, KCNQ1 (r); assay: IPP KCNQ1 binding (antagonist radioligand); parameters: species or system rat
[12] = test system: Tubulin (r); assay: IPP Tubulin binding; parameters: species or system rat; details: 100 uM; ligand/control Colchicine
[13] = test system: mouse; details: ref SCCS; cited from earlier work
[14] = test system: HepaRG cells; assay: High-throughput transcriptomics (HTTr, TempO-Seq), HepaRG, 24 h; format: cell-based, human
Experimental: (§1) HepG2, HepaRG, and MCF7 cells were treated with each compound for 24 h across a dose range of 7 concentrations and lysed using TempO-Seq lysis buffer (BioSpyder Technologies, proprietary kit, see [Middleton et al. 2022] for method details). Sequencing was performed using TempO-Seq (BioClavis) version 2 of the human whole transcriptome panel and analyzed as described previously in Middleton et al.

[15] = target: vitamin K epoxide reductase enzyme (VKORC1); details: ref Bevans et al. 2013, cited from earlier work
[16] = PBK input, level L2; ref [10]; cited from earlier work
[17] = PBK model plasma Cmax estimate (Gastroplus 9.8; levels L1, L2, L3); parameters: species or system human; details: therapeutic uses
[18] = target: Voltage-dependent L-type Ca2+ channel (dihydropyridine site), CACNA1C (r) (Rattus norvegicus, UniProt P22002); format: binding; details: IPP screening at 100 uM; control nitrendipine
[19] = test system: MCF7 cells; assay: High-throughput transcriptomics (HTTr, TempO-Seq), MCF7, 24 h; format: cell-based, human; details: MCF-7
Experimental: as §1

[20] = human; remark: listed apart in the source
[21] = human, cited from earlier work
[22] = test system: HepG2 cells; assay: High-throughput transcriptomics (HTTr, TempO-Seq), HepG2, 24 h; format: cell-based, human; details: HepG2
Experimental: as §1

[23] = PO 15 mg, tablet, 8 male, Fasted, calibration, ref Stirling Y, et al. British Journal of Haematology (1982) 51: 37-46

T3 sequence (P29274 whole entry): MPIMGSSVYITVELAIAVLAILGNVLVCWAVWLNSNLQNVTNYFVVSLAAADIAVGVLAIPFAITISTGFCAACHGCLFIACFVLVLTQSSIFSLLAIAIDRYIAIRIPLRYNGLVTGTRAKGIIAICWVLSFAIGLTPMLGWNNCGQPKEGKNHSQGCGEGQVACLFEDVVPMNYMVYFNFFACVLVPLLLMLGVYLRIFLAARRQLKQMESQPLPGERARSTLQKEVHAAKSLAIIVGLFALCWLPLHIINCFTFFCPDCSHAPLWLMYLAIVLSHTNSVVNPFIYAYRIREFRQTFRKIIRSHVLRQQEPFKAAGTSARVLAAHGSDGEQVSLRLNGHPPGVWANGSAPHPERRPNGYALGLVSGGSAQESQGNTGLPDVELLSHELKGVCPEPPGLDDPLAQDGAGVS
Chain of Potassium voltage-gated channel subfamily H member 2 hERG, KCNH2 (h) (Q12809 whole entry): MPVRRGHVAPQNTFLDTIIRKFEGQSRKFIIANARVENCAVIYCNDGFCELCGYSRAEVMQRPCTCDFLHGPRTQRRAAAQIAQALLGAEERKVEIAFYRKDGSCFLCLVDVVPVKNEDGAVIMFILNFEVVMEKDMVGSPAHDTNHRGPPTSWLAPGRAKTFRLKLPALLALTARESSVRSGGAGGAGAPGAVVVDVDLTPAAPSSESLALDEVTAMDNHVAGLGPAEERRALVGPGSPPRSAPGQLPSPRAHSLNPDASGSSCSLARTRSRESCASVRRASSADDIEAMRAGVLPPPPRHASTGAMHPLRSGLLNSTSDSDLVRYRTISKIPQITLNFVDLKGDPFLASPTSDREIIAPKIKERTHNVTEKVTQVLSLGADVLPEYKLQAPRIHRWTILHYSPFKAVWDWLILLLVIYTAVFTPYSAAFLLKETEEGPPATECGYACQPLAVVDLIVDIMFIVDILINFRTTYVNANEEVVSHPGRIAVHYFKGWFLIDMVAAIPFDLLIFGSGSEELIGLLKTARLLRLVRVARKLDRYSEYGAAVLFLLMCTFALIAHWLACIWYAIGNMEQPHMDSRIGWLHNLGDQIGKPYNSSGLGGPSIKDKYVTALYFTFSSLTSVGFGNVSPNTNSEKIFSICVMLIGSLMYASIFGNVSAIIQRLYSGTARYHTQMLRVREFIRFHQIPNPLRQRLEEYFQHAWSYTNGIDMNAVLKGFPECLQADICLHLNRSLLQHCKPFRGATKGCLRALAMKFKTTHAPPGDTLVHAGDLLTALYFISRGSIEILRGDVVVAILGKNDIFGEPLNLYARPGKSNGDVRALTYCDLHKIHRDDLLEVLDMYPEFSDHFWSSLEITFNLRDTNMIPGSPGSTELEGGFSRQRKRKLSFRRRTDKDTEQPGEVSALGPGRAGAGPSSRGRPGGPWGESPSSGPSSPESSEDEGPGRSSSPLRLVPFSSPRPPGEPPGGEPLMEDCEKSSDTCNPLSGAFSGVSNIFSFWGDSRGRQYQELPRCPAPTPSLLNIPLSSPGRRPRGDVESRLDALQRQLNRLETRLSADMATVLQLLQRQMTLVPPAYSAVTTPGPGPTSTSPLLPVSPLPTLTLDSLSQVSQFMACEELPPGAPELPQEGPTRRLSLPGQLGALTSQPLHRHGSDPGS
Chain of Voltage-dependent L-type Ca2+ channel (dihydropyridine site), CACNA1C (r) (P22002 whole entry): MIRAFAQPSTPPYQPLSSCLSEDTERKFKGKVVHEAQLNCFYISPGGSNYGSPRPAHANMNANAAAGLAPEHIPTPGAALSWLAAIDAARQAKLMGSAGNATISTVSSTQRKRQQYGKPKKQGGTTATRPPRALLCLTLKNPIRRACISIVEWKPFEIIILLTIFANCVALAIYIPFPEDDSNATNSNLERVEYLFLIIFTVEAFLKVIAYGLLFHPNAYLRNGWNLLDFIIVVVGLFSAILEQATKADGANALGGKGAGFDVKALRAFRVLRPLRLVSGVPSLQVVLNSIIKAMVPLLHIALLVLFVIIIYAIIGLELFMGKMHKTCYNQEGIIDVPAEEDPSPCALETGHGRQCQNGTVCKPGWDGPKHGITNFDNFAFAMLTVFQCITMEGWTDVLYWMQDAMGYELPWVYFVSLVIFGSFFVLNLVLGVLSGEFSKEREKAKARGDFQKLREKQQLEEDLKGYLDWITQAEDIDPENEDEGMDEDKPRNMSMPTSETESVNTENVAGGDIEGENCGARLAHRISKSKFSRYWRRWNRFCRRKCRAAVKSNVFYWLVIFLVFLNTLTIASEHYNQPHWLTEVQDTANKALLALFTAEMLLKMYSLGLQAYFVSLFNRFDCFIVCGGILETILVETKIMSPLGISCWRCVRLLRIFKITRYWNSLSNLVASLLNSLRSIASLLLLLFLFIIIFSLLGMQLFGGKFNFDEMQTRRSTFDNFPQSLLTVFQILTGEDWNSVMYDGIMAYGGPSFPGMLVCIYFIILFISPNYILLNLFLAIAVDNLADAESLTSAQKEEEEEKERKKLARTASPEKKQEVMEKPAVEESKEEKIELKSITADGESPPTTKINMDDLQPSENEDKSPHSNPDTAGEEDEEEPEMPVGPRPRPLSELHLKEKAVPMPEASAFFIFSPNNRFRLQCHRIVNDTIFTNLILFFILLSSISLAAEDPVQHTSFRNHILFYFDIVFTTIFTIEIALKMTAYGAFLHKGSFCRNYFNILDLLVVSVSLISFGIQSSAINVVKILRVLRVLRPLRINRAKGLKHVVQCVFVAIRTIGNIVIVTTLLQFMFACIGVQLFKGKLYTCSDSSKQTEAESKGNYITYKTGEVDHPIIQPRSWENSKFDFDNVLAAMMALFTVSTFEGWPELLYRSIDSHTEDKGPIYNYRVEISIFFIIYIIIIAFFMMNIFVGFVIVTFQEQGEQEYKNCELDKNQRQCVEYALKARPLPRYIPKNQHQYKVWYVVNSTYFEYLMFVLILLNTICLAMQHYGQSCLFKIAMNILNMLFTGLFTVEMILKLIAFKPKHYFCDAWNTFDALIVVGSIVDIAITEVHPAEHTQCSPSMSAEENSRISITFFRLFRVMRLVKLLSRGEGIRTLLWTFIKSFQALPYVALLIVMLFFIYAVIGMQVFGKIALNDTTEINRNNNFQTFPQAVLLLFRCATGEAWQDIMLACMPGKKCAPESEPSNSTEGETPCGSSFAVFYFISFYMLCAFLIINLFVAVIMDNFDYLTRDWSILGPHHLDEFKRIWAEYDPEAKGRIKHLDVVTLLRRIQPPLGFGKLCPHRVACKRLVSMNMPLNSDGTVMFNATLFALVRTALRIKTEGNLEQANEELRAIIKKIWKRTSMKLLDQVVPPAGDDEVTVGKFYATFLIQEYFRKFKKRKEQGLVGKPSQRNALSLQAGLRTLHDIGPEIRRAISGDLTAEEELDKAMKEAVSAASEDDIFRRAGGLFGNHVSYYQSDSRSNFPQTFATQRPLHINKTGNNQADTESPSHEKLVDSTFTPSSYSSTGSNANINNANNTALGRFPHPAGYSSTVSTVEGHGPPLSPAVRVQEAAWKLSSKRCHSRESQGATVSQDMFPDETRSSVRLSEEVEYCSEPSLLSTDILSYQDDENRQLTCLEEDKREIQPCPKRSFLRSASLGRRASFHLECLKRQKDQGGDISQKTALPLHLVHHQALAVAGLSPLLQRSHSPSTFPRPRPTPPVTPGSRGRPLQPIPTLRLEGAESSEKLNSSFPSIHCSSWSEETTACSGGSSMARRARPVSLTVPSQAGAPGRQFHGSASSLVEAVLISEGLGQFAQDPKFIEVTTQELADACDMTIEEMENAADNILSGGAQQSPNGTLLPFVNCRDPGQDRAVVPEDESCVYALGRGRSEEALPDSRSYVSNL

Compound: Nc1ccc(NCCO)c([N+](=O)[O-])c1 [HC Red 3, 2-(4-Amino-2-nitroanilino)ethan-1-ol]
- IPP screening %, Coactivator recruitment [1]: 628.0* %
- risk [2]: 0
- Specific binding [3]: 38.7%
- IPP Dose Response PoD: PXR antagonist [4]: [4.11, 6.71]
- IPP Dose Response PoD: CAR antagonist effect [5]: [29.7,46.9]
- pod_cell_stress PoD [6]: 1.583 µM
- Specific binding [7]: 18.0%
- Specific binding [8]: 0.4%
- Specific binding [9]: 16.3%
- IPP screening %, Specific binding ([10]; 100 uM, [3H] Dofetilide, control Terfenadine): 16.3%
- Specific binding ([11]; IPP screening at 100 uM, control α-dendrotoxin): -2.7%
- IPP screening %, Specific binding [12]: -13.0%
- NOAEL before adjustment for 5 day dosing regimen [13]: NOAEL of 125 mkd adjusted for 5 day dosing regimen. 90 mkd used as critical PoD by SCCS

Compound: CC(=O)CC(c1ccccc1)c1c([O-])c2ccccc2oc1=O.[Na+] (stereo not shown) [Warfarin, Sodium 2-oxo-3-(3-oxo-1-phenylbutyl)-2H-1-benzopyran-4-olate]
- IPP screening %, Coactivator recruitment [1]: -2.0%
- Specific binding [3]: 0.7%
- HepaRG minimum pathway BMDL ([14]; BMDExpress2, highest of the chemical's PoDs): 259 µM
- pod_httr_bifrost PoD ([14]; HepaRG, HTTr BIFROST PoD): 13.5544 µM
- podl_path_minbmd PoD ([14]; HepaRG, HTTr minimum pathway BMD(L)): 258.74 µM
- HepaRG BIFROST global PoD ([14]; lowest of the chemical's PoDs): 13.6 µM
- pIC50 ([15]; read-out: IC50 on the VKORC1 enzyme, lower end of literature range): 7.61
- pIC50 ([15]; read-out: IC50 on the VKORC1 enzyme, upper end of literature range): 5.40
- Fup [16]: 2%
- pod_cell_stress PoD [6]: 13.7726 µM
- Specific binding [7]: -14.2%
- Specific binding [8]: 7.9%
- underprediction of the L3 result at L2 (Cmax) [17]: ≥ 5 fold
- Specific binding [18]: -1.9%
- Specific binding [9]: 0.6%
- IPP screening %, Specific binding ([10]; human): 10.1%
- pod_httr_bifrost PoD ([19]; HTTr BIFROST PoD): 19.7041 µM
- podl_path_minbmd PoD ([19]; HTTr minimum pathway BMD(L)): 167.012 µM
- Specific binding [11]: 7.0%
- Intrinsic Liver Clearance [20]: 14.41 L/h
- Reported AUC0-t [21, 23]: 54.3 µg·h/mL
- Reported cmax [21, 23]: 1.305 µg/mL
- Reported tmax [21, 23]: 1 h
- Cmax ([21]; read-out: typical Cmax reported in the literature, ref literature, not specified): 0.6 to 6 µM
- IPP screening %, Specific binding [12]: 3.0%
- pod_httr_bifrost PoD ([22]; HTTr BIFROST PoD): 14.2833 µM
- podl_path_minbmd PoD ([22]; HTTr minimum pathway BMD(L)): 164.109 µM
